Test results published in US20190169181A1, “FUMAGILLOL COMPOUNDS AND METHODS OF MAKING AND USING SAME” (Zafgen, Inc., priority 2016, published 2019).
Structures can show the parent of a compound that is named as a salt.

Assays:
[1] = molecular target: T1, recombinant human MetAP2 (Homo sapiens, UniProt P50579); experiment: Recombinant human MetAP2 enzyme inhibition assay (MAS peptide / amino acid oxidase / Amplex Ultrared readout); format: biochemical; details: Flag tagged human recombinant MetAP2, 25 minutes at 25° C.
T1 construct: Flag; made in house
T1 sequence (P50579 whole entry): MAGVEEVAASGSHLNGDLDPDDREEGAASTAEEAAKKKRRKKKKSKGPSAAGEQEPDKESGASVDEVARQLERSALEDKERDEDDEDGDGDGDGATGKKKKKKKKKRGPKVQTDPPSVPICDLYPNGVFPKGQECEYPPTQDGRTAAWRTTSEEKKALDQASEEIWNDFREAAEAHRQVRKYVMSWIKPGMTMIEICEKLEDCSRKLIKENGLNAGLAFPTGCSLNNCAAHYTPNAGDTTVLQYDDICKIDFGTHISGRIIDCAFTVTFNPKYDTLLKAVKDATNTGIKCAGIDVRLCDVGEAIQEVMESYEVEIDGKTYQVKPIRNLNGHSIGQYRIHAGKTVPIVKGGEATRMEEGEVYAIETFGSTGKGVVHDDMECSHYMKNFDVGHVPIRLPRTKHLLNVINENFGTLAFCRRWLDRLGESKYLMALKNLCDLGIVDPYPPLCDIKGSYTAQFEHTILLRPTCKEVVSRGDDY
Description: Compounds are tested for their capacity to inhibit recombinant human MetAP2 activity using the following assay.
Flag tagged Human recombinant MetAP2 expressed and isolated for use as the enzyme source. 10 mM stock solutions of compounds were prepared in 100% DMSO and further diluted in 100% DMSO required concentration to 1 mM stocks. The stock compound solutions and DMSO vehicle controls were diluted to target final compound concentrations using assay buffer to a final concentration of 50 mM HEPES containing 100 mM NaCl, pH adjusted to 7.5. The MAS peptide was formulated to a 7.5 mM stock in distilled water and prior to use further diluted 1:4. […] 40 μl of enzyme was mixed with 100 μl of MnCl2 then further diluted in assay buffer to a final concentration of 16 μg/ml. To test for compound effect on MetAP2 enzyme activity, 5 μl of test compound, 10 μl of MAS substrate/amino acid oxidase mixture, 10 μl of MetAP2 was added to test wells in a 384 well black plate with blank wells containing no enzyme, replaced with 10 μl of assay buffer. All compounds were tested in duplicate on two occasions on the same day.
The plate was sealed with a TopSeal A cover and mixed briefly on an orbital mixer at 900 rpm. The plate was incubated for a further 25 minutes at 25° C. A 5× stock of Amplex buffer was prepared (0.25 M sodium phosphate, pH 7.4) and stored at 4° C. […] Horse radish peroxidase was diluted in […] of Amplex buffer, 100 μl of this was combined with 50 μl of Amplex Ultrared in […] of 1× Amplex buffer to generate sufficient detection reagent for a 384 well plate. 25 μl detection reagent was added to each well of the test plate, which was re-sealed and mixed briefly on an orbital shaker. The plate was transferred to an Envision Multi-label reader and RFU measured corresponding to excitation 531 nm and emission 595 nm. At the end of the MetAP2 incubation 25 μl Amplex/HRP mixture per well was added and the plate read plate on a plate reader.

[2] = test system: Diet Induced Obese (DIO) C57BL/6 mice; experiment: 10 day DIO mouse model, weight loss vs. vehicle; format: in vivo; details: 240 h; for inhibition in vivo at 0.3 mg/kg: 0.3 mpk sc once a day for 10 days; for inhibition in vivo at 1 mg/kg: 1.0 mpk sc once a day for 10 days
Excerpt: The objective of this study design was to investigate the efficacy of disclosed compounds in a 10 day DIO mouse model. Effects on body weight, food intake, hematology and blood chemistry were the primary readouts of this study design. Male, Diet Induced Obese (DIO) C57BL/6 mice, 19-21 weeks of age (13-15 weeks on high fat diet) were ordered from a certified vendor and upon receipt were housed on irradiated corncob bedding in micro-isolator cages on a 12-hour light-dark cycle (0700-1900) at 68-74° F. and 30-70% humidity. Mice were fed Research Diets D12492 (60% Kcal fat, 20% Kcal carbohydrate and 20% protein) and provided water ad libitum. DIO mice were received and housed in the facility for approximately two weeks prior to the start of test article administration. On Day −4 or −3, mice were randomized into study groups based on body weight and body weights were continued to be recorded daily for the duration of the study. Daily food intake was assessed starting on Study Day −2 by weighing of the food with hopper together to avoid loss of food in transfer.
(§1) Compounds were formulated into a 100% DMSO stock (at 9 mg/mL) prior to the start, and further diluted into the target working concentration using the vehicle of 10% DMSO in water. Prior to test article administration, starting on Day −3 a dosing acclimation occurred with all animals receiving a subcutaneous injection of vehicle (10% DMSO) only for 3 days. Starting on Day 1, test compounds or vehicle were administered based on individual body weight, subcutaneously, once a day for 10 days. All mice were sacrificed on Day 11, 24 hours following the final dosing on Day 10. After sacrifice, whole blood was collected and analyzed for hematology and blood chemistry parameters.
(§2) Compounds were tested for weight loss vs. vehicle at 0.3 and 1.0 mpk sc (mg per kg animal weight delivered subcutaneously), and the results are shown in Table 2 below.

[3] = test system: rat DIO model (Sprague Dawley rats on 45% High Fat diet); experiment: 11 day rat DIO model, weight loss vs. vehicle; format: in vivo; details: for Rat @ 0.3 mpk sc (%) weight loss vs. vehicle: 0.3 mpk sc once a day for 11 days; for Rat @ 1.0 mpk sc (%) weight loss vs. vehicle: 1.0 mpk sc once a day for 11 days
Excerpt: The objective of this study design is to investigate the efficacy of disclosed compounds in an 11 day rat DIO model used to screen compounds for pharmacologic efficacy on endpoints related to obesity and metabolism. Effects on body weight, food intake, hematology and blood chemistries were the primary readouts of this study design. Male Sprague Dawley rats, approximately 8 weeks of age, were ordered from a certified vendor and housed on irradiated corncob bedding in micro-isolator cages, on a 12-hour light-dark cycle (0700-1900) at 68-74° F. and 30-70% humidity. Rats were fed Research Diets D12451 (45% High Fat) and provided water ad libitum. Rats were received and housed in the facility for at least two or three weeks prior to start of test article administration. On Day −4 or −3, rats were randomized into study groups based on body weight and body weights were continued to be recorded daily for the duration of the study. Daily food intake was assessed starting on Study Day −2 by weighing the hopper including the food to avoid loss of food in transfer.
as §1, with “for 11” for “for 10”, “All animals” for “All mice”, “11, approximately 2” for “11, 24”, “Day 11.” for “Day 10.”
as §2

SMILES | IC50 [1] | inhibition in vivo at 0.3 mg/kg [2] | inhibition in vivo at 1 mg/kg [2] | Rat @ 0.3 mpk sc (%) weight loss vs. vehicle [3] | Rat @ 1.0 mpk sc (%) weight loss vs. vehicle [3]
CNc1nnc([C@@H](NC(=O)O[C@@H]2CC[C@]3(CO3)[C@@H]([C@@]3(C)O[C@@H]3CC=C(C)C)[C@@H]2OC)C(C)C)o1 [Example 2, (3R,5S,6R)-5-methoxy-4-((2R,3R)-2-methyl-3-(3-methylbut-2-enyl)oxiran-2-yl)-1-oxaspiro[2.5]octan-6-yl (S)-2-methyl-1-(5-(methylamino)-1,3,4-oxadiazol-2-yl)propylcarbamate] | < 50 nM | 5.4% | 4.6% | 0.6% | 0.9%
CO[C@@H]1[C@H](OC(=O)N[C@H](c2nccn2C[C@@H]2CCCN2C)C(C)C)CC[C@]2(CO2)[C@H]1[C@@]1(C)O[C@@H]1CC=C(C)C [Example 6, (3R,4S,5S,6R)-5-methoxy-4-((2R,3R)-2-methyl-3-(3-methylbut-2-enyl)oxiran-2-yl)-1-oxaspiro[2.5]octan-6-yl (S)-2-methyl-1-(1-(((S)-1-methylpyrrolidin-2-yl)methyl)-1H-imidazol-2-yl)propylcarbamate formate] | 50 to 500 nM | 6.5% |  | 0.1% | 2.1%
CO[C@@H]1[C@H](OC(=O)N[C@H](Cc2nnc(N)o2)C(C)C)CC[C@]2(CO2)[C@H]1[C@@]1(C)O[C@@H]1CC=C(C)C [Example 32, (3R,4S,5S,6R)-5-methoxy-4-((2R,3R)-2-methyl-3-(3-methylbut-2-enyl)oxiran-2-yl)-1-oxaspiro[2.5]octan-6-yl (R)-1-(5-amino-1,3,4-oxadiazol-2-yl)-3-methylbutan-2-ylcarbamate] | < 50 nM | 3.9% | 0.8% |  | 
CO[C@@H]1[C@H](OC(=O)N[C@H](Cc2nnc(N)s2)C(C)C)CC[C@]2(CO2)[C@H]1[C@@]1(C)O[C@@H]1CC=C(C)C [Example 36, (3R,4S,5S,6R)-5-methoxy-4-((2R,3R)-2-methyl-3-(3-methylbut-2-en-1-yl)oxiran-2-yl)-1-oxaspiro[2.5]octan-6-yl ((R)-1-(5-amino-1,3,4-thiadiazol-2-yl)-3-methylbutan-2-yl)carbamate] | 50 to 500 nM |  | 2% |  | 
CO[C@@H]1[C@H](OC(=O)N[C@@H](Cc2nnc(N)s2)C(C)C)CC[C@]2(CO2)[C@H]1[C@@]1(C)O[C@@H]1CC=C(C)C [Example 37, (3R,4S,5S,6R)-5-methoxy-4-((2R,3R)-2-methyl-3-(3-methylbut-2-enyl)oxiran-2-yl)-1-oxaspiro[2.5]octan-6-yl (S)-1-(5-amino-1,3,4-thiadiazol-2-yl)-3-methylbutan-2-ylcarbamate] | 50 to 500 nM | 2.5% |  |  | 
CO[C@@H]1[C@H](OC(=O)N[C@H](c2ccc(N3CCC3)nc2)C(C)C)CC[C@]2(CO2)[C@H]1[C@@]1(C)O[C@@H]1CC=C(C)C [Example 41, (3R,4S,5S,6R)-5-methoxy-4-((2R,3R)-2-methyl-3-(3-methylbut-2-enyl)oxiran-2-yl)-1-oxaspiro[2.5]octan-6-yl ((S)-1-(6-(azetidin-1-yl)pyridin-3-yl)-2-methylpropyl)carbamate] | < 50 nM | 11.7% |  |  | 
CO[C@@H]1[C@H](OC(=O)N[C@H](c2cn(CC(C)C)cn2)C(C)C)CC[C@]2(CO2)[C@H]1[C@@]1(C)O[C@@H]1CC=C(C)C [Example 42, (3R,4S,5S,6R)-5-methoxy-4-((2R,3R)-2-methyl-3-(3-methylbut-2-en-1-yl)oxiran-2-yl)-1-oxaspiro[2.5]octan-6-yl ((S)-1-(1-isobutyl-1H-imidazol-4-yl)-2-methylpropyl)carbamate] | < 50 nM | 10% |  |  | 

Second part, led by results:

IC50 [1] | SMILES | inhibition in vivo at 0.3 mg/kg [2] | inhibition in vivo at 1 mg/kg [2] | Rat @ 0.3 mpk sc (%) weight loss vs. vehicle [3] | Rat @ 1.0 mpk sc (%) weight loss vs. vehicle [3]
50 to 500 nM | CNc1nnc(C[C@@H](NC(=O)O[C@@H]2CC[C@]3(CO3)[C@@H]([C@@]3(C)O[C@@H]3CC=C(C)C)[C@@H]2OC)C(C)C)o1 [Example 33, (3R,4S,5S,6R)-5-methoxy-4-((2R,3R)-2-methyl-3-(3-methylbut-2-enyl)oxiran-2-yl)-1-oxaspiro[2.5]octan-6-yl (R)-3-methyl-1-(5-(methylamino)-1,3,4-oxadiazol-2-yl)butan-2-ylcarbamate] | 3.7% | 1% |  | 
50 to 500 nM | CNc1nnc(C[C@H](NC(=O)O[C@@H]2CC[C@]3(CO3)[C@@H]([C@@]3(C)O[C@@H]3CC=C(C)C)[C@@H]2OC)C(C)C)s1 [Example 34, (3R,4S,5S,6R)-5-methoxy-4-((2R,3R)-2-methyl-3-(3-methylbut-2-enyl)oxiran-2-yl)-1-oxaspiro[2.5]octan-6-yl (S)-3-methyl-1-(5-(methylamino)-1,3,4-thiadiazol-2-yl)butan-2-ylcarbamate] | 3.4% |  |  | 
50 to 500 nM | CNc1nnc(C[C@@H](NC(=O)O[C@@H]2CC[C@]3(CO3)[C@@H]([C@@]3(C)O[C@@H]3CC=C(C)C)[C@@H]2OC)C(C)C)s1 [Example 35, (3R,4S,5S,6R)-5-methoxy-4-((2R,3R)-2-methyl-3-(3-methylbut-2-enyl)oxiran-2-yl)-1-oxaspiro[2.5]octan-6-yl (R)-3-methyl-1-(5-(methylamino)-1,3,4-thiadiazol-2-yl)butan-2-ylcarbamate] |  | 1% |  | 
50 to 500 nM | CO[C@@H]1[C@H](OC(=O)NCC(C)(C)c2nnc[nH]2)CC[C@]2(CO2)[C@H]1[C@@]1(C)O[C@@H]1CC=C(C)C [Example 39, (3R,4S,5S,6R)-5-methoxy-4-((2R,3R)-2-methyl-3-(3-methylbut-2-enyl)oxiran-2-yl)-1-oxaspiro[2.5]octan-6-yl 2-methyl-2-(4H-1,2,4-triazol-3-yl)propylcarbamate] | 3.4% | 7.6% |  | 
50 to 500 nM | CO[C@@H]1[C@H](OC(=O)N(C)[C@H](c2cn(CC(C)C)cn2)C(C)C)CC[C@]2(CO2)[C@H]1[C@@]1(C)O[C@@H]1CC=C(C)C [Example 40, (3R,4S,5S,6R)-5-methoxy-4-((2R,3R)-2-methyl-3-(3-methylbut-2-enyl)oxiran-2-yl)-1-oxaspiro[2.5]octan-6-yl ((S)-1-(1-isobutyl-1H-imidazol-4-yl)-2-methylpropyl)(methyl)carbamate] | 2.3% |  |  | 
